Experimental data as given in US20240115663A1, “COMPOSITIONS COMPRISING AT LEAST AN INSULIN AND AN AMYLIN RECEPTOR AGONIST FOR TREATING DIABETES, IN A PATIENT/PERSON HAVING A BMI OF MORE THAN 28 KG/M² AND/OR AN HBA1C OF MORE THAN 7.6%” (ADOCIA, priority 2022, published 2024).

Experiment: Phase 2 clinical trial of M1Pram vs Humalog in subjects with type 1 diabetes: body weight change after 16 weeks
Assay type: in vivo, human
Description: A phase 2 clinical trial was conducted to confirm the efficacy and safety of M1Pram in subjects with type 1 diabetes (NCT04816890).
The primary objective of the trial was to compare the efficacy of prandial use of M1Pram to Humalog® (insulin lispro) on body weight change after 16 weeks of optimised titration, in combination with a basal insulin.
In addition, exploratory objectives included the comparison of the efficacy of prandial use of M1Pram with Humalog® in subgroups of subjects with a body mass index (BMI) and HbA1c above and below the median at screening.
A post-hoc analysis also included the comparison of the efficacy of prandial use of M1Pram with Humalog® in subgroups of subjects with a body mass index (BMI)>=30 kg/m^2.
The primary endpoint was the body weight change from baseline to week 16 of treatment.
In addition, exploratory endpoints included analysis of the subgroups of the primary endpoint according to BMI and HbA1c below and above the median.
A post-hoc analysis was also performed to analyze the subgroups of the primary endpoint according to BMI>=30 kg/m^2.
This was a multicentric, open-label, randomized, two-arm parallel, active-comparator controlled phase 2 clinical trial evaluating the efficacy and safety of M1Pram in subjects with type 1 diabetes.
Key inclusion criteria included subjects • with T1D • aged between 18 and 64 years • with a Body Mass Index (BMI) between 25.0 and 35.0 kg/m^2, both inclusive, • with HbA1c between 7.0% and 9.5%, both inclusive • with a Diabetes duration of at least 12 months • Using a multiple dosing insulin therapy (MDI) with a basal insulin and a rapid-acting insulin • having at least two meals per day.
80 patients were randomized 1:1 to M1Pram or Humalog®.
The trial consisted in 4 periods: • an optional a run-in period of 2 to 4 weeks for patients not already using the Continuous Glucose Monitoring (CGM) system used in the trial or either insulin degludec or insulin glargine as basal insulins • a 3-week baseline data recording period • after randomization, a treatment period of about 16 weeks (W1 to 16) • and a safety follow-up period of 1 to 2 weeks after the last product administration.
37 subjects completed the trial in the Humalog® arm and 34 in the M1 Pram arm. The subgroups were selected depending on the patients' metrics at screening.

## insulin lispro [Humalog ®]
All completers, baseline to week 16 of treatment, T1D subjects, prandial use with basal insulin
  Mean BW change in kg (SD): −0.45 (3.12) kg
Subgroup BMI <= 28 kg/m^2 at screening, baseline to week 16
  Mean BW change in kg (SD): −0.69 (3.19) kg
Subgroup BMI > 28 kg/m^2 at screening, baseline to week 16
  Mean BW change in kg (SD): −0.17 (3.09) kg
Subgroup BMI >= 30 kg/m^2 (post-hoc), baseline to week 16
  Mean BW change in kg (SD): −0.57 (3.60) kg
Subgroup HbA1c <= 7.6% at screening, baseline to week 16
  Mean BW change in kg (SD): −0.87 (2.20) kg
Subgroup HbA1c > 7.6% at screening, baseline to week 16
  Mean BW change in kg (SD): 0.04 (3.95) kg
